Source: paper PMC8712301, “Novel CYP11B-ligand [^123/131I]IMAZA as promising theranostic tool for adrenocortical tumors: comprehensive preclinical characterization and first clinical experience” (European Journal of Nuclear Medicine and Molecular Imaging, 2021)
Where two headings read alike, the source gives them in different places.

Columns and labels:
[1] = Metabolic inactivation by human liver microsomes in vitro (radio-HPLC); assay type: in vitro ADME; conditions: for Metabolic stability compared with [125I]IMTO: radio-HPLC; for half-life at 0.17 MBq/ml: human, pH 7.2, 125I-labeled compound, liver microsomes 0.2 mg/ml, NADPH, 37 °C, mean ± S.D., read-out: In vitro T1/2 in human liver microsomes
Experimental: Metabolic degradation was determined by co-incubation of the tracers with human liver microsomes (Sigma, M0317). Experiments were conducted in triplicates. Incubation mixtures consisted of liver microsomes (0.2 mg/ml), the respective ^125I-labeled compound (0.1 MBq), MgCl2 (3.3 mM), and NADPH (1.3 mM) in a total volume of 0.6 ml K3PO4 puffer (25 mM, pH 7.2). The reaction was started with the addition of NADPH and incubated at 37 °C. At predefined time points, aliquots were removed, and the reaction was terminated by adding 160 µL ice-cold methanol. After centrifugation (5000 × g, 4 °C for 4 min), the supernatant was analyzed by radio-HPLC (see experimental details and Supplementary Fig. 1 in Supplement).

human CYP11B2 = biological target: T1, human CYP11B2 (Homo sapiens, UniProt P19099); experiment: Inhibition of CYP11B2 in stably transfected Y1-hsCyp11B2 cells; assay type: cell-based
T1 construct: expressed in transfected cells; host or cells: murine adrenocortical cancer cell line Y1 (Y1-hsCyp11B2, stably transfected)
T1 sequence (P19099 25-503): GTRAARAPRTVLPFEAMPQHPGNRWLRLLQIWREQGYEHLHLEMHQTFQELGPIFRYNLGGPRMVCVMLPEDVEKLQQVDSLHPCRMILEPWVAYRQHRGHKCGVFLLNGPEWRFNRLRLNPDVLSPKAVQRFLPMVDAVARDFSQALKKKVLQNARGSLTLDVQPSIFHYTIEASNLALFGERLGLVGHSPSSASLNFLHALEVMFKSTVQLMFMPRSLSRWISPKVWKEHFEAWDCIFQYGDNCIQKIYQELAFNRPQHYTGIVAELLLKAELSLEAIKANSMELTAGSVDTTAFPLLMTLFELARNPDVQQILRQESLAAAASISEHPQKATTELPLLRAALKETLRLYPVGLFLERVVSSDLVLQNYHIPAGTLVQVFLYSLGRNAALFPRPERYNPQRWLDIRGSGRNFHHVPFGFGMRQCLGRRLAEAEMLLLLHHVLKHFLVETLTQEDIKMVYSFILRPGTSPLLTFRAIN
Experimental: (§1) The human adrenocortical cell line NCI-H295 and the murine adrenocortical cancer cell line Y1 transfected with either human CYP11B1 or CYP11B2 were used for determination of IC50 values as already described.
(§2) IC50 values were calculated from all values using the program GraphPad Prism5®. All results are expressed as mean ± standard deviation.

NCI-H295 cells = experiment: Steroid secretion in NCI-H295 cells after 48-h incubation; assay type: cell-based, human; conditions: for Production of the investigated hormones: higher concentrations; for Upstream steroids 17-OH-progesterone and androstenedione: lower concentrations 0.1-10 nM
Experimental: as §1
Fig. 2 Steroid secretion in NCI-H295 cells after 48-h incubation with IMTO, IMAZA, 3-tetrahydrofurylester, and 2,2-difluoroethylester (0.1–10,000 nM). NCI-H295 cells were incubated for 48 h with the four compounds. Each experiment was performed in triplicates. At the end of the incubation period, steroid hormones (cortisol, aldosterone, 17-OH-P, and androstenedione) were determined in the cell supernatant by commercially available assays

human CYP11B1 = biological target: T2, human CYP11B1 (Homo sapiens, UniProt P15538); experiment: Inhibition of CYP11B1 in stably transfected Y1-hsCyp11B1 cells; assay type: cell-based
T2 construct: expressed in transfected cells; host or cells: murine adrenocortical cancer cell line Y1 (Y1-hsCyp11B1, stably transfected)
T2 sequence (P15538 25-503): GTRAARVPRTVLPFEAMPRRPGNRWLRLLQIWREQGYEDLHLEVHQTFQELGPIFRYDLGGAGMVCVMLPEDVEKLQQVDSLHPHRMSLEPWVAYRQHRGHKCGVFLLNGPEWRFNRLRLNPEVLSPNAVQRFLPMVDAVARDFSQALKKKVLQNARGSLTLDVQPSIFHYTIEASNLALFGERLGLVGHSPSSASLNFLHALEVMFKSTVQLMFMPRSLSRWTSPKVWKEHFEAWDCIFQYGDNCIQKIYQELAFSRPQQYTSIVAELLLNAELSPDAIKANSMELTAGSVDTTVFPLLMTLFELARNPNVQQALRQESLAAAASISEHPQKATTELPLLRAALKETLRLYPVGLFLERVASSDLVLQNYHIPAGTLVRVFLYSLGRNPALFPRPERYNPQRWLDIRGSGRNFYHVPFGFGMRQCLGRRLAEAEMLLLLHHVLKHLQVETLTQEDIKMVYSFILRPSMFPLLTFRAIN
Experimental: as §1, §2

[2] = Lipophilicity estimated from HPLC retention times
advanced ACC [3] = system: advanced ACC; design: method as in PMID 15898346, PMID 29452402; conditions: advanced ACC ref 10, 11; cited from earlier work
metastatic ACC [4] = experiment: Dosimetry and endoradiotherapy with [131I]IMAZA in a patient with metastatic ACC; assay type: in vivo, human; conditions: patient #1, derived from diagnostics with [123I]IMTO
Description: Patient #1 had experienced disease progression with a more than fourfold increase in their dominant lesions within only 4 months after a phase of disease stabilization after standard treatment with mitotane and eight courses of combination chemotherapy with etoposide, doxorubicin, and cisplatin. They received therapeutic doses with 28.2 GBq [^131I]IMAZA 1 month and with 30.5 GBq [^131I]IMAZA 7 months after the evaluation with [^123I]IMAZA. Prior to the first treatment, the absorbed dose to the blood was measured with a tracer activity of 72 MBq [^131I]IMAZA as a surrogate for the exposure of the dose-limiting organ, the red bone marrow. The absorbed dose to the blood was estimated from assessments of the activity kinetics in total body and blood up to 48 h when the mean activity concentrations had dropped to 5% of the values at 5 min after the administration in the total body and to 1% in the blood. During therapy, the total body activity retention was measured with a survey meter in the ceiling over the patient’s bed. Gamma camera whole body scans accompanied by blood sampling were acquired starting 4 days post-administration after the first and 2 days after the second therapy until dismissal. SPECT/CT imaging was performed after 4 and 5 days, respectively.
Tumor evaluation was performed by [^18F]FDG PET/CT at baseline and 2, 5, 8, 11, 14, and 21 months after administration of the first treatment dose. Subsequently, the patient declined further follow-up imaging or additional therapeutic interventions.

metastatic ACC [5] = experiment: as above; assay type: in vivo, human; conditions: patient #1, derived from diagnostics with [123I]IMTO; remark: listed apart in the source
advanced ACC [6] = experiment: Diagnostic imaging and biokinetics with [123I]IMTO and [123I]IMAZA in patients with advanced ACC; assay type: in vivo, human; conditions: kinetics recalculated for 131I from 123I diagnostics in patients
Experimental: Three patients (#1, #2, and #3) were investigated by [^123I]IMAZA (administered doses, 117, 163, and 182 MBq, respectively) and subsequently by [^123I]IMTO (176, 169, and 146 MBq, respectively). The time interval between the imaging studies was at least 5 days. Scintigraphic imaging was performed using a Siemens Symbia dual-head gamma camera equipped with medium-energy parallel-hole collimators. Activity concentration was measured in whole blood samples drawn at 2 min, 5 min, 15 min, 1 h, 2.5 h, 5 h, and 23 h after the administration. Plasma activity was analyzed in patient #1.

## C[C@H](c1ccc(I)cc1)n1cncc1C(=O)OCC(F)F [Compound 4, (R)-1-[1-(4-Iodophenyl)ethyl]-1H-imidazole-5-carboxylic acid 2,2-difluoroethylester]
[1]; human liver microsomes
  Metabolic stability compared with [125I]IMTO: nearly equal or even better metabolic stability
[1]
  half-life at 0.17 MBq/ml: 7.5 ± 0.87 min
Human CYP11B2
  IC50: 4.5 ± 0.5 nM
NCI-H295 cells
  Production of the investigated hormones: completely stopped
  Upstream steroids 17-OH-progesterone and androstenedione: accumulation of the upstream steroids 17-OH-progesterone and androstenedione was observed
Human CYP11B1
  IC50: 0.3 ± 0.4 nM
[2]
  Lipophilicity compared with IMTO: comparable

## C[C@H](c1ccc(I)cc1)n1cncc1C(=O)OC1CCOC1 (stereo partly drawn) [Compound 3, (R)-1-[1-(4-Iodophenyl)ethyl]-1H-imidazole-5-carboxylic acid 3-tetrahydrofurylester]
[1]; human liver microsomes
  Metabolic stability compared with [125I]IMTO: nearly equal or even better metabolic stability
[1]
  half-life at 0.17 MBq/ml: 7.4 ± 2.8 min
Human CYP11B2
  IC50: 2.9 ± 1.6 nM
NCI-H295 cells
  Production of the investigated hormones: completely stopped
  Upstream steroids 17-OH-progesterone and androstenedione: accumulation of the upstream steroids 17-OH-progesterone and androstenedione was observed
Human CYP11B1
  IC50: 5.3 ± 5.9 nM
[2]
  Lipophilicity compared with IMTO: comparable

## COC(=O)c1cncn1[C@H](C)c1ccc(I)cc1 [Compound 1, (R)-1-[1-(4-Iodophenyl)ethyl]-1H-imidazole-5-carboxylic acid methyl ester]
[1]; human liver microsomes
  half-life at 0.17 MBq/ml: 7.3 ± 3.6 min
other
  melting point: 72 to 74 °C

## Clc1ccc(C(c2ccccc2Cl)C(Cl)Cl)cc1 (stereo not shown) [mitotane]
Advanced ACC [3]
  Response rate: ≤ 24%

## C[C@H](c1ccc(I)cc1)n1cncc1C(=O)O [Compound 2, (R)-1-[1-(4-Iodophenyl)ethyl]-1H-imidazole-5-carboxylic acid]
Human CYP11B2
  IC50: 611 ± 1040 nM
other
  melting point: > 250 °C (dec.)

## C[C@H](c1ccc(I)cc1)n1cncc1C(=O)N1CCC1 [Compound 5, (R)-1-[1-(4-Iodophenyl)ethyl]-1H-imidazole-5-carboxylic acid azetidinylamide]
[1]; human liver microsomes
  half-life at 0.17 MBq/ml: 26.1 ± 5.5 min
Human CYP11B2; stably transfected Y1-hsCyp11B2 cells, substrate 11-deoxycorticosterone (1 µM), mean of at least three experiments in duplicates, read-out: IC50 CYP11B2
  IC50: 1.2 ± 0.1 nM
NCI-H295 cells
  Production of the investigated hormones: completely stopped
  Upstream steroids 17-OH-progesterone and androstenedione: accumulation of the upstream steroids 17-OH-progesterone and androstenedione was observed
Human CYP11B1; stably transfected Y1-hsCyp11B1 cells, substrate deoxycortisol (1 µM), mean of at least three experiments in duplicates, read-out: IC50 CYP11B1
  IC50: 3.2 ± 0.1 nM
[2]
  Lipophilicity compared with IMTO: lower

## COC(=O)c1cncn1C(C)c1ccc([131I])cc1 (stereo not shown) [[^131I]IMTO]
Metastatic ACC [4]
  Blood absorbed dose: 0.17 Gy/GBq
Metastatic ACC [5]
  Residence time per liter of whole blood: 0.55 h
Advanced ACC [6]
  Mean blood absorbed dose: 0.11 Gy/GBq
